Source: US20220008500A1, “COMPOSITIONS AND METHODS FOR TREATING HEART FAILURE” (The George Washington University, priority 2017, published 2022)
Where “and” joins values, the source holds several entries; their conditions need not be identical. Equal entries are not always repeated.

Tests used:
[1] = molecular target: T1, DREADDs in PVN OXT neurons (Homo sapiens, UniProt P20309, A239G/Y149C); experiment: Anatomic measurements and histology of hearts after chronic activation of PVN OXT neurons; format: in vivo, Sprague-Dawley rats; design: expressed in transfected cells; host or cells: PVN oxytocin neurons of Sprague-Dawley rats, transduced in vivo with a Cre-dependent (double-floxed inverse ORF) viral vector plus an OXT-promoter Cre vector
T1 sequence (P20309 whole entry Y149C/A239G): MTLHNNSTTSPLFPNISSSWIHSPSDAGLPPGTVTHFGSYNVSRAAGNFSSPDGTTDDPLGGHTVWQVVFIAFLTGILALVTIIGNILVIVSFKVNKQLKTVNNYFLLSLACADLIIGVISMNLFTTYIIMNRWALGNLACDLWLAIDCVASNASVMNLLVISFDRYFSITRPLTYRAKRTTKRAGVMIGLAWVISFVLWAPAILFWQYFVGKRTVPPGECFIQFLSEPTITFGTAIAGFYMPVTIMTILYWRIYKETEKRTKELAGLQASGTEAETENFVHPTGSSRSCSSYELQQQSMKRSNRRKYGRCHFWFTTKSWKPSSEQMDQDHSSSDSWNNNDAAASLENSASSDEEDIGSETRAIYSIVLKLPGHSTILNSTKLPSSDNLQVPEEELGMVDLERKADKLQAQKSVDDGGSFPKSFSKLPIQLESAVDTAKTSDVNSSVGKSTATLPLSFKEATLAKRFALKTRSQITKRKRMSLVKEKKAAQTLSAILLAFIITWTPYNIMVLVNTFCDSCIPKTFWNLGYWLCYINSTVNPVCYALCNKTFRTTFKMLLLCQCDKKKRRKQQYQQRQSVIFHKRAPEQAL
Text: (§1) Pressure overload induced LV hypertrophy was initiated in male Sprague-Dawley rats using a minimally invasive trans-ascending aortic constriction (TAC) procedure. Rats at one week of age were aestheticized by hypothermia and underwent TAC surgery. A 0.5 cm incision was made at the level of the chest, the chest was opened and the thymus was retracted to reveal the aorta. A 4-0 silk suture was passed around the ascending aorta, and with a 25-gauge needle temporarily placed adjacent to the aorta, the suture was tied around both the aorta and needle (TAC and TAC+OXT groups). The needle was then removed, leaving the constricting suture around the aorta. Buprenorphine was applied as an analgesic. Successful constriction was confirmed upon examination of the aorta after each animal was sacrificed.
(§2) Additionally, selective activation of DREADDs in PVN OXT neurons decreases both mean arterial pressure and HR in telemetry instrumented conscious unrestrained animals. […] In this system one viral vector expresses Cre recombinase under an OXT promotor. The second vector expresses the excitatory hM3Dq DREADDs22. This is a Cre-dependent vector that has silencing double-floxed inverse open reading frames, which insures expression is only in OXT neurons that selectively express Cre. In each animal, 30-50 nl containing both viral vectors was selectively microinjected into the PVN over a 20 minutes period at 1 week of age.
(§3) TAC+OXT and OXT NORM animals received intraperitoneal (IP) injections of CNO (1 mg/kg) daily, beginning at 5 weeks of age until the animal was sacrificed.
In a subset of animals, hearts were excised and cannulated via the aorta, flushed of blood, and weighed after clearing fluid from the chambers. The hearts were cut transversely, halfway between the apex and base, and the thickness of the LV free wall and septum were measured. The tissue was then preserved in 10% formalin for histology. Other hearts from each group were cannulated, flushed with high potassium solution, and then formalin-fixed via retrograde perfusion at constant pressure (60 mmHg). The hearts were cut longitudinally and preserved in 10% formalin for histology. All heart specimens were stained (H&E and Trichrome) to quantify cell size and collagen deposition. Average myocyte transverse cross-sectional (CS) area (μm^2) and the amount of fibrosis (μm^2) observed in a histological section were measured using ImageJ for at least three transverse slices from each heart.

[2] = molecular target: T1, DREADDs in PVN OXT neurons
Procedure: In this system one viral vector expresses Cre recombinase under an OXT promotor. The second vector expresses the excitatory hM3Dq DREADDs22. This is a Cre-dependent vector that has silencing double-floxed inverse open reading frames, which insures expression is only in OXT neurons that selectively express Cre. In each animal, 30-50 nl containing both viral vectors was selectively microinjected into the PVN over a 20 minutes period at 1 week of age.
Sprague-Dawley rats at 4 weeks of age that had DREADDS expression in PVN oxytocin neurons were anesthetized (isoflurane) and implanted with a telemetry device (HDX-11, DSI) with the pressure catheter inserted into the descending abdominal aorta to measure blood pressure (BP). The ECG leads of the device were inserted subcutaneously to measure HR. Rats were allowed to recover from this surgery for a week, followed by IP saline injections for 3 days to acclimate the animals to IP injections. […] One injection of one of the three solutions was administered each day on consecutive days.

[3] = molecular target: T1, DREADDs in PVN OXT neurons; experiment: Ex vivo cardiac function of excised Langendorff perfused hearts during sinus rhythm; design: expressed in transfected cells; host or cells: PVN oxytocin neurons of Sprague-Dawley rats, transduced in vivo with a Cre-dependent (double-floxed inverse ORF) viral vector plus an OXT-promoter Cre vector; species or system Sprague-Dawley rats
Text: as §1, §2, §3
(§4) At nine weeks of age rats were anesthetized with an IP injection of 0.2 mL Telazol and subject to isoflurane inhalation. Following cessation of pain reflexes, hearts were rapidly excised (n=26) and Langendorff perfused via the aorta at constant pressure (65 mmHg) and temperature (37° C.) with a Krebs-Henseleit solution containing (in mM) 115 NaCl, 3.3 KCl, 2.0 CaCl2, 1.4 MgSO4, 25.0 NaHCO3, 1.0 KH2PO4, 5.0 glucose, and 1.0 lactate. Perfusate was oxygenated with 95% 02-5% CO2. After a stabilization period of 10 minutes, a size 5 balloon (Harvard Apparatus) was inserted into the LV to measure isovolumic LV developed pressure (LVDP). Diastolic pressure was set to 10 mmHg and LVDP was computed as the difference between systolic and diastolic pressures. HR, LVDP, and coronary flow rate (CFR) were measured for at least 15 minutes during sinus rhythm. An isoproterenol (16504, Sigma Aldrich) dose response protocol was then administered using concentrations of 0.01, 0.1, 1, 10, 100, 1000 nM, and HR, LVDP, and CFR were measured at each concentration once function stabilized. After each study, rate pressure product (RPP), an indirect measure of LV work, was calculated as the product of HR and LVDP. Contractility and relaxation were measured as the maximum and minimum values of the first derivative of the LVP waveform, respectively, to assess inotropy and lusitropy.

IL-1β = experiment: Western blot of LV myocardium, IL-1β; format: in vivo, Sprague-Dawley rats; details: CNO 1 mg/kg IP daily
Procedure: as §3
(§5) Samples of LV myocardium (n=5-6/group) were flash frozen in liquid nitrogen and stored at −80° C. For western blot analysis of protein expression, samples were thawed and homogenized using the Qproteome Mammalian Protein Prep Kit (Qiagen) in tubes containing metallic beads. Samples were then centrifuged at 14,000 g for 20 minutes and protein concentrations were determined by the Pierce BCA Protein Assay (Thermo Scientific). Laemmli buffer (Bio Rad) with 10% 2-mercaptoethanol (Sigma-Aldrich) was added to the samples and samples were heated to 98° C. Equal protein concentration was loaded into wells containing 4-20% Mini-PROTEAN® TGX™ Gels (Bio Rad). The samples were then run at 100V for 1-1.5 hours to separate proteins by electrophoresis.
(§6) After electrophoresis, the samples were transferred to PVDF membranes for 10 min at 25V using the Trans-Blot® Turbo™ Transfer System (Bio Rad). The membranes were blocked with 5% milk for 18 hours. […] Band intensities for collagen III and IL-10 were measured using ImageJ and normalized to the corresponding band intensity for GAPDH.

PVN OXT neurons = experiment: Firing of PVN OXT neurons after CNO injection; format: in vivo; details: DREADDs expressed in PVN OXT neurons
Text: as §2

collagen III = experiment: Western blot of LV myocardium, collagen III; format: in vivo, Sprague-Dawley rats; details: CNO 1 mg/kg IP daily
Procedure: as §3, §5, §6

[4] = tested on: excised Langendorff perfused hearts; experiment: Isoproterenol dose response in excised Langendorff perfused hearts (β-adrenergic stimulation); design: species or system Sprague-Dawley rats; details: for CFR at the highest isoproterenol concentration / Contractility at the highest isoproterenol concentration / RPP at the highest isoproterenol concentration / Relaxation at the highest isoproterenol concentration: isoproterenol 1000 nM
Procedure: as §4
Measurements in each group were compared using analysis of variance with Tukey post-hoc comparisons (Minitab 17 Statistical Software) to identify significant differences between groups. Myocyte area measurements were analyzed using fully nested ANOVA to account for both number of cells and number of animals. The isoproterenol dose response data was analyzed using a general linear model (GLM) to evaluate the group effect and the isoproterenol dose effect. Tukey post-hoc tests identified pairwise changes between groups at each isoproterenol concentration. Differences were considered significant if p<0.05.

[5] = tested on: myocardial ischemia-reperfusion; details: intra-cerebroventricular administration, rats with daily restraint stress; cited from earlier work
[6] = TAC rats with DREADDs, CNO 1 mg/kg IP daily, 8 weeks post-TAC, listed as TAC + OXT
[7] = TAC rats with DREADDs, CNO 1 mg/kg IP daily, 8 weeks post-TAC, listed as TAC+OXT
[8] = rats without TAC (OXT NORM), CNO 1 mg/kg IP daily
[9] = acute activation of PVN OXT neurons by CNO, n=4
[10] = awake rats with DREADDs in PVN OXT neurons, CNO 1 mg/kg IP, acute
[11] = hearts of TAC rats given CNO 1 mg/kg IP daily
[12] = hearts of rats without TAC (OXT NORM) given CNO daily
[13] = hearts of TAC rats given CNO daily

C[N+]1([O-])CCN(C2=Nc3cc(Cl)ccc3Nc3ccccc32)CC1 [CNO, clozapine N-oxide]
Myocyte area (transverse cross-sectional area) ([1]; TAC rats with DREADDs, CNO 1 mg/kg IP daily from 5 weeks of age, 8 weeks post-TAC, listed as TAC + OXT): 584 ± 51^+ μm^2
Myocyte area (transverse cross-sectional area) ([1]; TAC rats with DREADDs, CNO 1 mg/kg IP daily from 5 weeks of age, 8 weeks post-TAC, listed as TAC+OXT): 601±23 μm^2
Body weight ([1]; TAC rats with DREADDs, CNO 1 mg/kg IP daily, 8 weeks post-TAC): 298 ± 17^ g
Fibrosis [1, 6]: 2407 ± 723^+ μm^2
Heart weight [1, 6]: 1.75 ± 0.21 g
LV wall thickness (LV free wall) [1, 6]: 5.53 ± 0.34 mm
Septum thickness [1, 6]: 3.99 ± 0.14 mm
Fibrosis [1, 7]: 2407±723 μm^2
Heart weight [1, 7]: 1.74 ± 0.2 g
LV wall thickness (LV free wall) [1, 7]: 5.22±0.3 mm
Septum thickness [1, 7]: 3.9±0.2 mm
Myocyte area (transverse cross-sectional area) ([1]; rats without TAC (OXT NORM) with DREADDs, CNO 1 mg/kg IP daily): 368±20 μm^2 and 365 ± 90 μm^2
Body weight [1, 8]: 357 ± 24 g
Fibrosis [1, 8]: 918±112 μm^2
Heart weight [1, 8]: 2.19 ± 0.2 g and 2.19 ± 0.17 g
LV wall thickness (LV free wall) [1, 8]: 3.69±0.1 mm and 3.69 ± 0.10 mm
Septum thickness [1, 8]: 3.18±0.1 mm and 3.18 ± 0.12 mm
Effect on BP (figure legend) [2, 9]: significantly reduced BP
Effect on HR (figure legend) [2, 9]: significantly reduced HR
Average reduction of HR [2, 10]: 56 bpm
Average reduction of blood pressure [2, 10]: 13 mmHg
Blood pressure after CNO ([2]; awake rats with DREADDs, CNO 1 mg/kg IP, before: 105.8±1.9 mmHg): 93.4±1.5 mmHg
HR after CNO ([2]; awake rats with DREADDs, CNO 1 mg/kg IP, before: 475.4±15.9 bpm): 419±12.4 bpm
LV contractility (maximum of first derivative of LVP) [3, 11]: 3,124±383 mmHg/s
LV developed pressure (LVDP) [3, 11]: 126±14 mmHg
LV relaxation (minimum of first derivative of LVP) [3, 11]: −2,203±231 mmHg/s
Rate pressure product (RPP) [3, 11]: 26,874±4,036 mmHg*bpm
Coronary flow rate (CFR) ([3]; hearts of TAC rats given CNO 1 mg/kg IP daily, baseline (no isoproterenol), listed as TAC+OXT): 13.8 ± 2.9 mL/min and 14 ± 2.9 mL/min
Coronary flow rate (CFR) [3, 12]: 16 ± 1.9 mL/min
LV contractility (maximum of first derivative of LVP) [3, 12]: 4,631±931 mmHg/s
LV developed pressure (LVDP) [3, 12]: 127±16 mmHg
LV relaxation (minimum of first derivative of LVP) [3, 12]: −2,926±397 mmHg/s
Rate pressure product (RPP) [3, 12]: 26,978±2,274 mmHg*bpm
IL-1β expression (band intensity normalized to GAPDH) (IL-1β; TAC rats with DREADDs): 0.50±0.2 change from Control
IL-1β expression (band intensity normalized to GAPDH) (IL-1β; rats without TAC (OXT NORM)): 0.21±0.14 change from Control
Firing of PVN OXT neurons (PVN OXT neurons): increases the firing of PVN OXT neurons for at least one hour
Collagen III expression (band intensity normalized to GAPDH) (collagen III; TAC rats with DREADDs): 1.95±0.7 times Control
Collagen III expression (band intensity normalized to GAPDH) (collagen III; rats without TAC (OXT NORM)): 1.31±0.5 change from Control
HR response to increasing isoproterenol concentration ([4]; hearts of TAC rats given CNO daily, compared with Control and TAC hearts): greatest increase in HR
CFR at the highest isoproterenol concentration [4, 13]: 15 ± 1.9 mL/min
Contractility at the highest isoproterenol concentration [4, 13]: 3,936±589 mmHg/s
RPP at the highest isoproterenol concentration [4, 13]: 38,017±4,303 mmHg*bpm
Relaxation at the highest isoproterenol concentration [4, 13]: −3,258±495 mmHg/s

CC(C)NCC(O)c1ccc(O)c(O)c1 (stereo not shown) [isoproterenol]
Contractility at the highest isoproterenol concentration ([4]; Control hearts): 7,164±788 mmHg/s
RPP at the highest isoproterenol concentration ([4]; Control hearts): 52,741±14,328 mmHg*bpm
Relaxation at the highest isoproterenol concentration ([4]; Control hearts): −5,402±484 mmHg/s
CFR at the highest isoproterenol concentration ([4]; Control hearts, baseline 13.3±2.4 mL/min): 25.3 ± 3.7 mL/min
CFR, average for all isoproterenol concentrations ([4]; untreated TAC hearts): 8.4 ± 0.8 mL/min
Maximum contractility rate in the isoproterenol protocol ([4]; untreated TAC hearts): 2,322±364 mmHg/s
Minimum relaxation rate in the isoproterenol protocol ([4]; untreated TAC hearts): −2,023±361 mmHg/s
RPP at the highest isoproterenol concentration ([4]; untreated TAC hearts): 21,787±3998 mmHg*bpm

CC[C@H](C)[C@@H]1NC(=O)[C@H](Cc2ccc(O)cc2)NC(=O)[C@@H](N)CSSC[C@@H](C(=O)N2CCC[C@H]2C(=O)N[C@@H](CC(C)C)C(=O)NCC(N)=O)NC(=O)[C@H](CC(N)=O)NC(=O)[C@H](CCC(N)=O)NC1=O [oxytocin]
Cardiac injury following ischemia reperfusion [5]: reduced the cardiac injury
